Target: mouse TAAR1 (Mus musculus, UniProt Q923Y8)
Test: Radioligand binding to TAAR1 in membranes of stably transfected HEK293 cells

Sequence of mouse TAAR1 (Q923Y8 whole entry): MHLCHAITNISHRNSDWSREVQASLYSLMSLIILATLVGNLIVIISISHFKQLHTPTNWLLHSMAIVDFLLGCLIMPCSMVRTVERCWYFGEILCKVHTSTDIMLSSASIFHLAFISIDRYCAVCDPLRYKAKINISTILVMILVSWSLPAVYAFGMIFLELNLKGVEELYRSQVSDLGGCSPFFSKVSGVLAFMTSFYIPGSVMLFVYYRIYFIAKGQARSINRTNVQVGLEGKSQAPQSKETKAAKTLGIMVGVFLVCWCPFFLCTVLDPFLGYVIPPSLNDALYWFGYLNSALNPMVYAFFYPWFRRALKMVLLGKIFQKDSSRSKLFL

C[C@H]1OC(N)=N[C@H]1CCc1ccc(Cl)c(Cl)c1 [Example 15, (4S,5R)-4-[2-(3,4-Dichloro-phenyl)-ethyl]-5-methyl-4,5-dihydro-oxazol-2-ylamine]
Ki: 0.6 nM

C[C@@H]1OC(N)=N[C@H]1CCCc1ccccc1 [Example 11a, (4S,5S)-5-methyl-4-(3-phenyl-propyl)-4,5-dihydro-oxazol-2-ylamine]
Ki: 5.8 nM

CC1OC(N)=N[C@H]1Cc1ccccc1 (single isomer, unassigned) [Example 12]
Ki: 159 nM

C[C@H]1OC(N)=N[C@H]1CCc1ccccc1 [Example 8a, (4S,5R)-5-methyl-4-phenethyl-4,5-dihydro-oxazol-2-ylamine]
Ki: 3.1 nM

C[C@H]1OC(N)=N[C@H]1CCc1ccc(Cl)cc1 [Example 14, (4S,5R)-4-[2-(4-Chloro-phenyl)-ethyl]-5-methyl-4,5-dihydro-oxazol-2-ylamine]
Ki: 0.7 nM

CC1OC(N)=N[C@H]1CCc1ccccc1 (single isomer, unassigned) [Example 8]
Ki: 1.7 nM

C[C@@H]1OC(N)=N[C@H]1CCc1ccc(Cl)c(Cl)c1 [Example 15a, (4S,5S)-4-[2-(3,4-dichloro-phenyl)-ethyl]-5-methyl-4,5-dihydro-oxazol-2-ylamine]
Ki: 8 nM

C[C@H]1OC(N)=N[C@H]1Cc1ccccc1 [Example 12a, (4S,5R)-4-benzyl-5-methyl-4,5-dihydro-oxazol-2-ylamine]
Ki: 175 nM

C[C@H]1OC(N)=N[C@H]1CCCc1ccc(Cl)cc1 [Example 17, (4S,5R)-4-[3-(4-Chloro-phenyl)-propyl]-5-methyl-4,5-dihydro-oxazol-2-ylamine]
Ki: 0.3 nM

C[C@H]1OC(N)=N[C@H]1CCCc1ccccc1 [Example 11, (4S,5R)-5-Methyl-4-(3-phenyl-propyl)-4,5-dihydro-oxazol-2-ylamine]
Ki: 0.9 nM

C[C@@H]1OC(N)=N[C@H]1CCc1ccc(Cl)cc1 [Example 14a, (4S,5S)-4-[2-(4-chloro-phenyl)-ethyl]-5-methyl-4,5-dihydro-oxazol-2-ylamine]
Ki: 1.8 nM

c1ccc2c(c1)CCCC2C1=NCCN1 (racemic) [reference compound]
Kd: 60 nM

C[C@@H]1OC(N)=N[C@@H]1CCc1ccccc1 [Example 7, (4R,5S)-5-Methyl-4-phenethyl-4,5-dihydro-oxazol-2-ylamine]
Ki: 27.3 nM

C[C@H]1OC(N)=N[C@H]1CCC1CCCCC1 [Example 13a, (4S,5R)-4-(2-cyclohexyl-ethyl)-5-methyl-4,5-dihydro-oxazol-2-ylamine]
Ki: 52.7 nM

C[C@@H]1OC(N)=N[C@H]1CCC1CCCCC1 [Example 13, (4S,5S)-4-(2-Cyclohexyl-ethyl)-5-methyl-4,5-dihydro-oxazol-2-ylamine]
Ki: 13.3 nM

CCC1OC(N)=N[C@H]1CCc1ccccc1 (stereo partly drawn) [Example 9, (S)-5-Ethyl-4-phenethyl-4,5-dihydro-oxazol-2-ylamine]
Ki: 17.1 nM
